Activity calls are given as the source filed them. How the calls were made is not given here.
Columns and labels:
[1] = test system: human cells, Her2 expression AlphaScreen; CTG viability; experiment: Her2 expression suppression with viability readout – cell-based, AlphaScreen, CellTiter-Glo viability, dose response (AID 742); conditions: viability, CellTiter-Glo
[2] = as above; conditions: human cells, Her2 expression AlphaScreen; CTG viability; at 9.62 µM (top of the series)

| SMILES | EC50 [1] [µM] | Her2 inhibition [2] |
| --- | --- | --- |
| COc1ccccc1-c1cc(C(F)(F)F)nc(S(=O)(=O)CCCC(=O)N2CCCCC2C)n1 (centres undefined) | > 9.62 | -11.6% (inactive) |
| CCc1nc(C)ccc1OCC(=O)NCCCN(C)C | > 9.62 | -3% (inactive) |
| CC(C)N1CCC2(CC1)N=C(c1ccc3c(c1)OCO3)CC(c1cc(Cl)ccc1O)N2 (centres undefined) | > 9.62 | 20.5% (inactive) |
| CC(=N\O)/C(CN(C)C)=N/O | > 9.62 | -15.9% (inactive) |
| CCc1ccc(-c2nc(CN3CCC(C(=O)N4CCN(c5ccccc5)CC4)CC3)c(C)o2)cc1 | > 9.62 | -74% (inactive) |
| CSc1ccc2c(c1)N(CCC1CCCCN1C)c1ccccc1S2 (centres undefined) | > 9.62 | -45.6% (inactive) |
| Cn1nnnc1Sc1ncnc2scc(-c3ccccc3)c12 | > 9.62 | 41.9% (inactive) |
| C=C(C)Cn1c(-c2ccc(OC)cc2)nc2ccccc21 | > 9.62 | -19.2% (inactive) |
| COC(=O)/C=C/S(=O)(=O)c1ccc(NC(C)=O)cc1 | > 9.62 | 20.9% (inactive) |
| O=C(Oc1ccc2c(c1)OCO2)c1cc2c(s1)CCC2 | > 9.62 | 41.1% (inactive) |
| CCOc1cc(C(=O)CSc2nnc(CNc3ccc(Cl)cc3)o2)ccc1NC(=O)CC | > 9.62 | -22.6% (inactive) |
| C=C(C)COc1ccc(-c2n[nH]c(C)c2-c2ccccc2OC)c(O)c1 | > 9.62 | 4.56% (inactive) |
| CCOC(=O)C(C(C)=O)c1c(Br)c(O)c(O)c2c(C(=O)c3ccc(C)cc3)coc12 (centres undefined) | > 9.62 | 46.1% (inactive) |
| Nc1ccc2ncccc2c1N | > 9.62 | 1.77% (inactive) |
| O=C(c1ccco1)N(Cc1ccco1)c1ccc(O)cc1 | > 9.62 | -0.36% (inactive) |
| O=C(O)CCc1nn2cc(-c3ccccc3)nc2[nH]c1=O | > 9.62 | -26.9% (inactive) |
| Cc1ccc(C)n1-c1ccc(N2CCOCC2)nc1 | > 9.62 | 3.86% (inactive) |
| COc1ccc(C(=O)c2no[n+]([O-])c2C(=O)c2ccc(OC)cc2)cc1 | > 9.62 | -48.2% (inactive) |
| CCOC(=O)N1CCN(C(=O)CSCc2nc(-c3ccccc3C)oc2C)CC1 | > 9.62 | -0.97% (inactive) |

| SMILES | EC50 [1] [µM] | Her2 inhibition [2] |
| --- | --- | --- |
| COc1ccc(-c2cc(N)n(S(=O)(=O)c3c(F)c(F)c(F)c(F)c3F)n2)cc1OC | > 9.62 | 48.8% (inactive) |
| Cc1ccccc1-c1nc(CN2CCC(C(=O)NCCC3=CCCCC3)CC2)c(C)o1 | > 9.62 | -53.7% (inactive) |
| COc1cc2c(C#N)c(N3CCN(c4ccccc4OC)CC3)nc(N)c2c(N)n1 | > 9.62 | -7.21% (inactive) |
| COc1cc(NS(=O)(=O)c2ccc(C)cc2)c2ncccc2c1 | > 9.62 | 18.5% (inactive) |
| CCCCCN=Cc1c(C)[nH]n(-c2nc3ccccc3s2)c1=O | > 9.62 | -1.78% (inactive) |
| Oc1ccc2ccccc2c1C=NCc1cn2ccsc2n1 | > 9.62 | -11.2% (inactive) |
| CCN(CC(=O)NCc1cccs1)c1nnnn1-c1ccccc1 | > 9.62 | -22.3% (inactive) |
| CCOC(=O)CC1=C(C(=O)OCC)C(c2ccc(OC)cc2OC)C(C#N)=C(N)O1 (centres undefined) | > 9.62 | -27.6% (inactive) |
| c1ccc2cc(OCCN3CCCC3)ccc2c1 | > 9.62 | -36.3% (inactive) |
| CCCCC(C(=O)O)C(C)CC(=O)Nc1cccc(C(=O)O)c1 (centres undefined) | > 9.62 | -10.2% (inactive) |
| CCCc1[nH]nc2c1C(c1ccc(OC)c(Cn3nc(C)c(Br)c3C)c1)C(C#N)=C(N)O2 (centres undefined) | > 9.62 | -0.44% (inactive) |
| CCCC1C(c2ccccc2)C(C#N)(C#N)C2(C#N)CC1(N)NC2=O (centres undefined) | > 9.62 | -6.63% (inactive) |
| CCN(CC)C(=O)c1csc(Nc2ccc(C)cc2)n1 | > 9.62 | -12.9% (inactive) |
| Nc1c(S(=O)(=O)c2cccc(Cl)c2)c2nc3ccccc3nc2n1/N=C/c1ccc(O)c(O)c1 | > 9.62 | 11.2% (inactive) |
| COc1ccc(-c2nc(C(N)=O)c3[nH]c(=O)n(-c4cccc(Cl)c4)c3n2)cc1OC | > 9.62 | -17.3% (inactive) |
| CC(O)CCc1nc2ccc(C(=O)O)cc2[nH]1 (centres undefined) | > 9.62 | -23.7% (inactive) |
| CN1CC2=Cc3ccccc3OC23Oc2ccccc2C=C3C1 | > 9.62 | -10.3% (inactive) |
| COC(=O)c1[nH]c2ccc(Br)cc2c1NC(=O)C(C)N1CCN(C2CCCCC2)CC1 (centres undefined) | > 9.62 | -20.7% (inactive) |
